Patent US20200215025A1, “TREATMENT OF EXCITOTOXICITY” (priority 2017, published 2020)
Where “and” joins values, the source holds several entries; their conditions need not be identical. Equal values may be shown once. Entries after “also recorded” stand apart in the source; their conditions may differ.

Assays:
[1] = test system: rHEK293-GCaMP5g cells; experiment: Carbachol-induced Ca2+ store release in rHEK293-GCaMP5g cells (FlexStation 3); type: cell-based, human; settings: for EC50: carbachol 100 μM in Ca2+ free solution, areas under the curve (RFU) normalised to DMSO control, read-out: EC50, inhibition of Ca2+ store release; for Block of carbachol-induced Ca2+ store release: compound 4 μM, carbachol 100 μM, Ca2+ free solution
Source text: (§1) Untransfected human embryonic kidney 293 (HEK293) cells are a model for neuronal cell Ca^2+ signalling via Gq type G protein-coupled receptors (such as the metabotropic glutamate receptors). […] The current study utilised a custom-developed recombinant human embryonic kidney 293 (rHEK293) cell line stably over-expressing a genetically encoded Ca^2+ reporter (GCaMP5g—after [Akerboom J et al., 2012 Journal of Neuroscience, 32(40): 13819-13840]). This enabled imaging of the Ca^2+ store release under conditions where Carbachol (muscarinic receptor agonist)—induced Ca^2+ store release via the endogenous M3 muscarinic receptor—was delivered in a solution (in mM: NaCl 145; KCl 5.8; MgCl2 0.9; HEPES 10, NaH2PO4 0.7, d-glucose 5.6; pH 7.2-7.4, osmolarity 310-330 mOsm/L), lacking Ca^2+, to the wells containing the adherent rHEK293-GCaMP5g cells, using a FlexStation 3 multi-modal microplate reader (Molecular Devices). This paradigm, with sustained Carbachol presentation, results in extrusion of the cytosolic Ca^2+ from the cell via plasma membrane Ca^2+ pumps, alongside Ca^2+ store depletion. When Ca^2+ is then added to the media, a Ca^2+ signal is detected that reflects Ca^2+ entry into the cells via Ca^2+ entry pathways [Elliott, 2001 Cell calcium, 30, 73-93].
(§2) This study investigated the effect of Nx-1 and Nx-2 on the Ca^2+ re-entry in the rHEK293-GCaMP5g cells using the FlexStation 3 plate reader in ‘Flex Read’ configuration (485 nm excitation, 510 nm emission, 6 flashes per sample, medium detector sensitivity, 37° C., 780 sample points at 1.54 s intervals). The cells were seeded into the 96 well plates in DMEM media with 10% foetal calf serum supplement. The cells approached confluence at ˜66 hours at which stage the cells were washed with the Ca^2+-free solution, and then the drug was added in Ca^2+ free solution (80 μl) and the plate was then placed into the FlexStation plate reader (37° C.) and rested for 30 minutes prior to imaging. The Carbachol (final concentration 100 μM in Ca^2+ free solution; drug at specified concentration) was added 180 seconds after the start of the Ca^2+ imaging read. The Ca^2+ entry was triggered at 480 seconds by adding 10 μl of Carbachol in Ca^2+ solution with the drug (final concentrations: 100 uM Carbachol, Ca^2+1.3 mM; drug at specified concentration). The Ca^2+ imaging proceeded for a total duration of 20 minutes. Controls utilized DMSO carrier at corresponding dilution used with the drug at specified concentrations. Data analysis was based on the areas under the curves (RFU—relative fluorescence Units), with statistical analysis using Sigmaplot (Systat software, version 12.0) and graphics produced using Graphpad Prism (Graphpad Software, version 7.02).

[2] = test system: rHEK293-GCaMP5g cells; experiment: Ca2+ re-entry in rHEK293-GCaMP5g cells after Ca2+ store depletion (FlexStation 3); type: cell-based, human; settings: carbachol 100 μM; for EC50: Ca2+ 1.3 mM restored, areas under the curve (RFU) normalised to DMSO control, read-out: EC50, inhibition of Ca2+ re-entry; for Block of Ca2+ re-entry: compound 4 μM, 1.3 mM Ca2+ restored
Source text: as §1, §2

[3] = test system: mice (C57BI/6J); experiment: Photothrombotic cerebral cortex infarct model in mice; type: in vivo, mouse; settings: for Infarct volume, 5 DPI carrier versus 5 DPI drug (ANOVA, Holm-Sidak): Nx-2 p=0.025, Nx-1 p=0.886
Method: All in vivo experiments were performed with University of New South Wales (UNSW) Sydney Animal Care and Ethics Committee approval. To undertake this randomized blinded photothrombotic study, male and female mice (C57BI/6J) aged 2-4 months (20-30 g) were anaesthetised with a 4% isoflurane induction (on O2) and fixed onto a stereotaxic frame. Anaesthesia was maintained at 1.5% isoflurane for the rest of the procedure. The animals were constantly monitored for their heart rate and oxygen saturation with their body temperature maintained at 37±1° C. (Kent Scientific Physiology Suite system). An ophthalmological ointment was applied to the eyes for corneal protection. Analgesia Temgesic (Buprenorphine; 0.15 mg/kg; 0.32 mg/ml) was administered intramuscularly, using a 27G needle. The skull was shaved over the target cerebral cortex region and a local anaesthetic Lignocaine was injected subcutaneously (27 needle; 20 mg/ml). A midline incision was made through the skin to expose the cranium and the periosteum was removed. The surface of the cranium was made lucid by applying ophthalmological gel over the surface. The fibre-optic coupled green LED (532 nm; ˜1 mW; 1 mm diameter light guide, Thorlabs, USA) was placed over the left hemisphere of cerebral cortex (3 mm rostral to lambda; 2 mm from the midline) followed by injection of photosensitising dye Rose Bengal (50 mg/kg) with a 29G needle via the tail vein. The skull was illuminated for 5 minutes to trigger the localized thrombus formation at the target region of cerebral cortex. The skin was then sutured and the isoflurane anaesthesia was discontinued, while providing 100% oxygen until the mice regained consciousness. Mice were injected with saline (intraperitoneal, 250 μl) during the recovery phase for rehydration. The mouse was maintained on the rectal probe feedback controlled heating pad in a recovery cage until ambulatory (˜20 min) and then the animal was placed back in its cage with food and water. The mice were monitored for signs of post-operative stress on a daily basis for the five day treatment period. Mice were administered with either the carrier or Nx-2 drug (100 mg/kg) via a rectal suppository, 45 minutes after the photothrombotic lesion, and then every 24 hours for a further 4 days in the conscious mouse. At 5 days post-infarct, the mice were euthanized via an intraperitoneal injection of Lethabarb (100 mg/kg; 27 G needle), following which the mice were transcardially perfused with 4% paraformaldehyde (PFA) in phosphate buffer (0.1 M, pH 7.4). The brains were dissected out and post-fixed for overnight in 4% PFA at 4° C. The brains were cryoprotected in 10% and 30% sucrose made in 0.01 M PBS solutions overnight respectively. Images of the surface infarct were captured on a dissecting microscope. Following cryoprotection, the brains were sectioned coronally (50 μm thick) and kept in 0.01 M PBS until they were imaged under the darkfield microscope. The Image J (NIH) software was used to measure the surface area of the infarct and darkfield sections enabled measurement of the cross sectional area of the infarct (Image J, NIH). Total infarct volume was quantified by summation of areas of infarct from darkfield sections integrated with thickness of the tissue. Descriptive statistics, ANOVA and t-tests were performed to detect the significance difference among the treatment groups using Sigmaplot (Systat software, version 12.0) after establishing normal distribution of the data (alpha=0.05).
The skull of the mouse (C57BI/6J strain) was exposed to enable fibre optic illumination of a region of the cerebral cortex with green light (532 nm) to trigger localized thrombus formation due to tail vein injection of the photo sensitizing dye Rose Bengal. Macroscopic representation of the photo-thrombotic infarct was assessed 5 days post injury in mice treated with carrier only or with Nx-1 drug. […]

SMILES	EC50 [1]	Block of carbachol-induced Ca2+ store release [1]	EC50 [2]	Block of Ca2+ re-entry [2]	Infarct volume, 5 DPI carrier versus 5 DPI drug (ANOVA, Holm-Sidak) ([3]; 100 mg/kg)	Surface infarct area, 5 DPI drug versus core infarct (2 HPI control) ([3]; 100 mg/kg, p=0.064)	Neuroprotection, share of the penumbra expansion (surface infarct area) ([3]; 5 DPI, 100 mg/kg, relative to 2 HPI core infarct and 5 DPI carrier) [%]	infarct surface area ([3]; 5 days post infarct, 100 mg/kg rectal suppository 45 min after lesion then every 24 h for 4 days, individual mice)	infarct volume ([3]; Table 3, 5 days post infarct, Nx-2 100 mg/kg rectal suppository, individual mice)	EC50 ([1]; Homo sapiens) [µM]	EC50 ([2]; Homo sapiens) [µM]	infarct volume ([3]; Table 5, 5 days post infarct, Nx-1 100 mg/kg, individual mice)	infarct volume ([3]; Table 7, 5 days post infarct, Nx-1 100 mg/kg, individual mice)
COc1ccc(C2c3ccc(O)cc3OCC2c2ccc(O)cc2)cc1 (racemic) [Nx-2]	~0.6 µM and ~0.7 µM	Block; also recorded: virtually blocked	~0.6 µM and ~0.7 µM	Block	significant difference	not significantly different	50	6.56 mm^2 (2×) and 8.99 mm^2 and 8.19 mm^2 and 5.79 mm^2 and 6.70 mm^2	13.29 mm^3 and 10.34 mm^3 and 14.65 mm^3 and 12.02 mm^3 and 10.51 mm^3 and 13.76 mm^3	–	–	–	–
Oc1ccc(C2=Cc3ccc(O)cc3OC2)cc1 [Nx-1]	~2 µM	block; also recorded: virtually blocked	~2 µM	blocked	not significantly different	–	–	–	–	~1.5	~1.5	11.80 mm^3 and 18.94 mm^3 and 14.16 mm^3 and 16.84 mm^3	11.80 mm^3 and 18.94 mm^3 and 14.16 mm^3 and 16.84 mm^3
